≈ marks a conversion by molar mass, not a printed value. Calls of active or inactive are those of the source. The rule behind the calls is not given here.
Legend:
P388 = test: Cytotoxicity against mouse P388 cells by tetrazolium-based colorimetric assay; format: functional; details: for EC50: read-out: ED50 (the source's name)
A549 = test: Cytotoxicity against human A549 cells by tetrazolium-based colorimetric assay; format: functional, cell-based
HT-29 = test: Cytotoxicity against human HT-29 cells by tetrazolium-based colorimetric assay; format: functional

Row | SMILES | Activity (P388) | Activity (A549) | Activity (HT-29) | EC50 (P388) [µg/mL] | EC50 (HT-29; read-out: ED50 (the source's name)) [µg/mL]
1 | CC(=O)O[C@H]1C/C(C)=C\[C@@H]2OC(=O)[C@](C)(O)[C@]2(O)[C@H](OC(C)=O)[C@H]2[C@@H](C)[C@@H](O)C[C@H](OC(C)=O)[C@]2(C)[C@H]1OC(C)=O | inactive | inactive | inactive | – | –
2 | CC(=O)O[C@@H]1[C@H](C)[C@@H]2[C@@H](OC(C)=O)[C@@]3(O)[C@H](/C=C(CO)\C=C/[C@H](O)[C@@]2(C)[C@H]2O[C@@H]12)OC(=O)[C@@H]3C | inactive | inactive | inactive | – | –
3 | CC(=O)O[C@H]1CC/C(CO)=C\[C@@H]2OC(=O)[C@@]3(C)O[C@]23[C@H](O)[C@H]2[C@@H](C)[C@H](OC(C)=O)C=C[C@@]21C (relative stereo) | – | – | – | 0.4 (≈ 0.861 µM) | 1.1 (≈ 2.37 µM)
4 | CCCC(=O)O[C@H]1C/C(C)=C\[C@@H]2OC(=O)[C@](C)(O)[C@]2(O)[C@H](OC(C)=O)[C@H]2[C@@H](C)[C@@H](O)C[C@H](OC(C)=O)[C@]2(C)[C@H]1OC(C)=O [BRIAEXCAVATOLIDE L] | – | – | – | 0.5 (≈ 0.816 µM) | –
5 | CC(=O)O[C@@H]1[C@H](C)[C@@H]2[C@@H](OC(C)=O)[C@@]3(O)[C@H](/C=C(CCl)\C=C/[C@H](O)[C@@]2(C)[C@H]2O[C@@H]12)OC(=O)[C@@H]3C | inactive | inactive | inactive | – | –

Reference: ChEMBL document CHEMBL1150568, “Briaexcavatolides K-N, new briarane diterpenes from the gorgonian Briareum excavatum” (2001)
